Assay results taken from a melting point compilation (Tetko et al.; mined from patent text by program, amines drawn as free bases though some values may be those of a salt).

| melting point [°C] | Structure (SMILES) |
| --- | --- |
| 138 to 140 | CC(C)(C)Nc1nc(NCc2ccccc2)c(C#N)cc1F |
| 96 to 98 | COC(=O)c1ccc(OC(Cc2ccccc2)C(=O)OC)cc1 (stereo not given) |
| 183 | COc1ccccc1CNc1ccc2cc(Nc3nnc(C)o3)ccc2n1 |
| 182 to 183 | CCN(CC)c1nc(Nc2ccc3cc(-c4ccccc4)c(=O)oc3c2)nc(N2CCCC(CO)C2)n1 (stereo not given) |
| 106 to 107 | CC(=O)n1nc(CN2CCc3ccccc3C2)c2ccc(F)cc21 |
| 136 to 137 | CCc1cn(C(CC)CC)c(=O)c(N2CCc3cc(Cl)cc(Cl)c32)n1 |
| 248 to 253 | Cc1cc(-c2ccc(C#N)cc2)sc1C(=O)O |
| > 250 | CCOCc1nc2c(N)nc3ccccc3c2n1CCC(N)=O |
| 183 | Cc1nc2n(c(=O)c1CCN1CCC(c3noc4ccccc34)CC1)CCCC2 |
| 88 to 90 | C=C(c1ccccc1OC)c1ccccc1OC |
| 155 to 157 | COCC1OC(n2cnc3c(NCc4cccc(I)c4)ncnc32)C(O)C1O (stereo not given) |
| > 300 | CC(=O)Nc1ccc2c3c1c(=O)c(C(=O)O)cn3CCC2 |
| 175 to 176 | O=C(N=c1ccn(-c2ccccc2)nc1)c1ccccc1 |
| 42 to 43 | CC1Cc2cccc(Cl)c2C1=O (stereo not given) |
| 160 to 162 | CCN(Cc1cc(Br)ccc1NCc1ccccc1)c1ccc(C(N)=O)nn1 |
| 102 to 104 | O=C(C=Cc1ccccc1)OCC#CC#CCOC(=O)C=Cc1ccccc1 |
| 231 to 234 | COc1cc2c(cc1C#Cc1ccc(C(=O)O)cc1)C(C)(C)CCC2(C)C |
| 223 to 225 | COc1cccn(C2c3cc(S(=O)(=O)C(F)(F)F)ccc3OC(C)(C)C2O)c1=O (stereo not given) |
| 149 to 160 | CS(=O)(=O)N1Cc2nc3c(N)nc4c(c3n2C(CCCNC(=O)N2CCOCC2)C1)CCCC4 (stereo not given) |
| 52 to 55 | CC(C)(C)OC(=O)N[C@@H]1CCc2ccc(OS(=O)(=O)C(F)(F)F)cc2C1 |

| melting point [°C] | Structure (SMILES) |
| --- | --- |
| 194 | O=[N+]([O-])c1ccc(C(=NO)c2ccc([N+](=O)[O-])cc2)cc1 |
| 116 to 118 | O=C(SCC(SC(=O)c1ccccc1)C(=O)O)c1ccccc1 (stereo not given) |
| 146 to 148 | CC(C)c1cccc(C(C)C)c1NC(=O)CCl |
| 121 to 125 | CC(=O)N1CCc2ccc(Cl)c(S(=O)(=O)Cl)c2C1 |
| 104 to 106 | O/N=C1/c2ccccc2OC12CCCCCC2 |
| 60 to 63 | CN(CCF)C1CN(c2ccc(N3C[C@H](CN=[N+]=[N-])OC3=O)cc2F)C1 |
| 146 to 148 | CCCCCCOc1ccc(NC(=O)N(C)c2cccc(-c3ccc(CC4SC(=O)NC4=O)cc3)c2)cc1 (stereo not given) |
| 180 | COc1ncccc1Oc1cc(-n2c(=O)cc(C(F)(F)F)n(C)c2=O)c(F)cc1Cl |
| 233 to 238 | CNc1c(F)cc2c(=O)c(C(=O)O)cn(-c3ccc(F)c(N)n3)c2c1Cl |
| > 250 | COCCOc1ccc2c(=O)c(C#N)c[nH]c2c1 |
| 118 to 119 | CC(=O)OCCn1ccc(=O)c(OCc2ccccc2)c1C(OC(C)=O)c1ccc(F)cc1 (stereo not given) |
| 212 to 214 | S=C1N[C@@H](c2ccccc2)[C@H](c2ccccc2)N1 (relative stereo) |
| 118 to 120 | NC(=O)NN=Cc1ccc(Cc2ccccc2)cc1 |
| 56 to 58 | Cc1cccnc1C(=O)NC(C)(C)C |
| 216 | Cn1cc(-c2cccc(Br)c2)c(=O)c(-c2cccc(Br)c2)c1 |
| 101 to 102 | CC(=O)N[C@@H](CSC(=O)C(C)C)C(=O)NCCSC(=O)C(C)(C)C |
| > 300 | CCOC(=O)c1c[nH]c2cc(C(=O)NCCc3ccc(Cl)cc3)nn2c1=O |
| 67 to 69 | CC1CCc2ccc(OCC3CO3)cc2O1 (stereo not given) |
| 131 | CCCCC(C(=O)O)c1cccc(C(=O)c2cc3ccsc3s2)c1 (stereo not given) |

| Structure (SMILES) | melting point [°C] |
| --- | --- |
| O=C(O)CCSC1c2ccccc2COc2ccc(OCc3ccc4cc(Cl)ccc4n3)cc21 (stereo not given) | 178 to 180 |
